Source: US9340590B2 (priority 2011, dated 2016)
Read-outs that look alike come from different tables or passages of the source. Positions of bridges follow the written chain, without caps; N, C: chain ends. Non-standard residues stand in square brackets, D forms with d. Residues, ends and D or L forms follow the SMILES beside them. Phe(4-COOH) = N[C@@H](Cc1ccc(C(=O)O)cc1)C(=O)O; Trp(1-Me) = Cn1cc(C[C@H](N)C(=O)O)c2ccccc21; Cha = N[C@@H](CC1CCCCC1)C(=O)O; Phg = N[C@H](C(=O)O)c1ccccc1

Key:
Assay in all cases: cell-based
hNav1.7 = hNav1.7 (Homo sapiens, UniProt Q15858); format: cell-based; conditions: IonWorks Quattro, […], read-out: IWQ Use Nav1.7
hNav1.5 = hNav1.5 (Homo sapiens, UniProt Q14524); conditions: IonWorks Quattro, […], read-out: IWQ Use Nav1.5
hNav1.3 = hNav1.3 (Homo sapiens, UniProt Q9NY46); conditions: IonWorks Quattro, […], read-out: IWQ Use Nav1.3
Chain of hNav1.3 (Q9NY46 whole entry, looked up): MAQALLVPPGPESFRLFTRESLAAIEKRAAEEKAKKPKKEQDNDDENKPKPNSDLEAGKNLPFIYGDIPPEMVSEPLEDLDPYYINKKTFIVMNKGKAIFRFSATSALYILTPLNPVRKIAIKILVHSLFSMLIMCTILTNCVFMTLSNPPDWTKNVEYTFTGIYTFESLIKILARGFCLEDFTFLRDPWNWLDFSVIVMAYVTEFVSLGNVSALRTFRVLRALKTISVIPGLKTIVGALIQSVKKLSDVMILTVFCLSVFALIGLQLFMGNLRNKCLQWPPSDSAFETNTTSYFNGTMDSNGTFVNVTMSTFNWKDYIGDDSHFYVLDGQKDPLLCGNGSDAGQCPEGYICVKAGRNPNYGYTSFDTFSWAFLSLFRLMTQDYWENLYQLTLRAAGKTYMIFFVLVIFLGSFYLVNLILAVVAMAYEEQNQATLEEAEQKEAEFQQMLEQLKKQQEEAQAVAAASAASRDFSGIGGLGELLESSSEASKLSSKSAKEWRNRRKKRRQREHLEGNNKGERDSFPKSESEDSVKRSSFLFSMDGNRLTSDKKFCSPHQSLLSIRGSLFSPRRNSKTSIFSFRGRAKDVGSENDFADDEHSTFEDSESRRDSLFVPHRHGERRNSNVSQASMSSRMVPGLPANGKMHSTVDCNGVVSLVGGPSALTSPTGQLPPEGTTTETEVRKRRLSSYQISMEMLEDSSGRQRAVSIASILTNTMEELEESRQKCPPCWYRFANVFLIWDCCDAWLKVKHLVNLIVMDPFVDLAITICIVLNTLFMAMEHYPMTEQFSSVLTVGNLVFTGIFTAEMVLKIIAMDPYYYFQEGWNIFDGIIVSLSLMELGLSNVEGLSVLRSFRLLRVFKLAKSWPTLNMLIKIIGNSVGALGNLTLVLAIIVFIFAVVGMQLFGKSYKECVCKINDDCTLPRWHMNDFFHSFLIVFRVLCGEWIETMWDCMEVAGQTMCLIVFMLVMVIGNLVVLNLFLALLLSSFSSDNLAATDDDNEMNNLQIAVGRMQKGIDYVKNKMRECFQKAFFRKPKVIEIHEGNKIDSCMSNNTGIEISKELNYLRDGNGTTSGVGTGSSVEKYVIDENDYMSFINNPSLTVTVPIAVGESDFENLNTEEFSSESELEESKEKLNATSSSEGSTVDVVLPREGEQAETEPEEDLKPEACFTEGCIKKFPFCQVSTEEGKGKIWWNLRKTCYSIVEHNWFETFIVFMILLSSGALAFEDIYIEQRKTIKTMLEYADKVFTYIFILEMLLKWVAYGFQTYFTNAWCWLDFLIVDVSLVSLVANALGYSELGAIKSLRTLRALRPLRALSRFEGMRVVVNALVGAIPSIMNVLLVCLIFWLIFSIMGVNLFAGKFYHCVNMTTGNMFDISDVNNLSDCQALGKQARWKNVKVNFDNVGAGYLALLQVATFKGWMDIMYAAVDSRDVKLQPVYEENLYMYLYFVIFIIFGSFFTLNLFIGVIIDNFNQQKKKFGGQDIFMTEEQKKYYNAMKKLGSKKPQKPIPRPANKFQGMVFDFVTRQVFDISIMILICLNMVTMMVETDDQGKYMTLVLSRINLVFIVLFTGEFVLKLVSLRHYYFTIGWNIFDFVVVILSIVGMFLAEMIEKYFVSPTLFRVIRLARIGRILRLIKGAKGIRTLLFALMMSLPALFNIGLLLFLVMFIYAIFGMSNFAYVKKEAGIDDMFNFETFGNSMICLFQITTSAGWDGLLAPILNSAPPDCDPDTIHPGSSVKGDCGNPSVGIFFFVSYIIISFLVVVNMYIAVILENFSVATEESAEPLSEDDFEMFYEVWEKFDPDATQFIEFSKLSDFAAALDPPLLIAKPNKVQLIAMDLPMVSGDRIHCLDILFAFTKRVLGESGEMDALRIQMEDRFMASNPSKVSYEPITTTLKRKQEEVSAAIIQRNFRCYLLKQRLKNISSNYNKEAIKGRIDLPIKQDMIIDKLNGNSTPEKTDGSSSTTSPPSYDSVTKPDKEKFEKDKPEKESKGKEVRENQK

Chain of hNav1.7 (Q15858 whole entry, looked up): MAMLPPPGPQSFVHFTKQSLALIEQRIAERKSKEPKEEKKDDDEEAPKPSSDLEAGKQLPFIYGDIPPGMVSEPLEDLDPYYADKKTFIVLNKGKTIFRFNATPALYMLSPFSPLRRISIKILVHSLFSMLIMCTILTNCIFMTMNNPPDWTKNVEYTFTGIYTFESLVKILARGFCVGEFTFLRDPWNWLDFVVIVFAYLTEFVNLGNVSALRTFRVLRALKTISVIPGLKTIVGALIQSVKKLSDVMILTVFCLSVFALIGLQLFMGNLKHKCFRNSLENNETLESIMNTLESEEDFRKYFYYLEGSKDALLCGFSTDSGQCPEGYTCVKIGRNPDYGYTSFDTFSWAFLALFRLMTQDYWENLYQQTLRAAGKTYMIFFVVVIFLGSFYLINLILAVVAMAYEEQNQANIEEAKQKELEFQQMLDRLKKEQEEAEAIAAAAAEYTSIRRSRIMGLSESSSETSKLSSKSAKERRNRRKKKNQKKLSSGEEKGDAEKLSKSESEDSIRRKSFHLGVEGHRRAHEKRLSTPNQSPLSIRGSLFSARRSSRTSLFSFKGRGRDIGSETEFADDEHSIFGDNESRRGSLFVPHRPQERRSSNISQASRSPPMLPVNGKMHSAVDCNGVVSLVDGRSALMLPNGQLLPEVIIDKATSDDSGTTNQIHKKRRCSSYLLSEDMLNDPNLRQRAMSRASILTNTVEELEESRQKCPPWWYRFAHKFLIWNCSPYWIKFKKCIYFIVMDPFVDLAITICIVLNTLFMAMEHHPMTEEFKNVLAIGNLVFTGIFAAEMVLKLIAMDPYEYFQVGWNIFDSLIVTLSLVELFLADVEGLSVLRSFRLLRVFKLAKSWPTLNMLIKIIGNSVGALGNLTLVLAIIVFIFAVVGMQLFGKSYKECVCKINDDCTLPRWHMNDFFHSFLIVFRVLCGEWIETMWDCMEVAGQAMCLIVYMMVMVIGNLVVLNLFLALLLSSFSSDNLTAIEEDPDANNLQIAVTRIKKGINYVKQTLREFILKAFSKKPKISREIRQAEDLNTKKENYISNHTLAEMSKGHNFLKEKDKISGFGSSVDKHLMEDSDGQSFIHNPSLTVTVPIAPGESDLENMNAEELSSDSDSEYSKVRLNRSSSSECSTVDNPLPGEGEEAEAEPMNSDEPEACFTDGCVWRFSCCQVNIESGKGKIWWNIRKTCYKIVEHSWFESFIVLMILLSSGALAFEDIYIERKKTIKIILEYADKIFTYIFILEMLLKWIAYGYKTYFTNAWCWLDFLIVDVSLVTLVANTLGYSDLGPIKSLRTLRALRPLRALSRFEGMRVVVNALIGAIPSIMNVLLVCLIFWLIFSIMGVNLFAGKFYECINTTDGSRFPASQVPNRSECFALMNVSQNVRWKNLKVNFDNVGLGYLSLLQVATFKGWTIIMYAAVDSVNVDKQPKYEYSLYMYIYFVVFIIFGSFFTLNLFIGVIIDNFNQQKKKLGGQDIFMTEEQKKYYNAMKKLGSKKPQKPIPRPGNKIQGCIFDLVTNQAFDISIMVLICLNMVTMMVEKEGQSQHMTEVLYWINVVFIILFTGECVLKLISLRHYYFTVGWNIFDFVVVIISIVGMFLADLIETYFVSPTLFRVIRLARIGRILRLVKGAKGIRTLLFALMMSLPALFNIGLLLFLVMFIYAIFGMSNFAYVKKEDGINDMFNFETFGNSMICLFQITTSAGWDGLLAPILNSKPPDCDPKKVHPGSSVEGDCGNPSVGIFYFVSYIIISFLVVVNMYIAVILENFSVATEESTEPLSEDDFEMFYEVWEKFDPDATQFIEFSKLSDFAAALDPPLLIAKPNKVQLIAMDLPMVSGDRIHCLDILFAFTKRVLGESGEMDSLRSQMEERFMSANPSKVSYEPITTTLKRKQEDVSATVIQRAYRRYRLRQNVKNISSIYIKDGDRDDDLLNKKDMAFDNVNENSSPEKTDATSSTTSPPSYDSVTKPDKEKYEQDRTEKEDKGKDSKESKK

| SMILES | IC50 (hNav1.7; Table 26, use) | IC50 (hNav1.5; Table 26, use) | IC50 (hNav1.3; Table 26, use) | IC50 (hNav1.7; use-dependent) | IC50 (hNav1.5; use-dependent) | IC50 (hNav1.3; use-dependent) |
| --- | --- | --- | --- | --- | --- | --- |
| CC[C@H](C)[C@@H]1NC(=O)[C@@H]2CSSC[C@@H]3NC(=O)[C@H](C(C)C)NC(=O)[C@H](CC(C)C)NC(=O)[C@H](CC(N)=O)NC(=O)[C@@H]4CCCN4C(=O)[C@H](CCCNC(=N)N)NC(=O)[C@H](CSSC[C@H](NC(=O)[C@@H](N)CC(=O)O)C(=O)N[C@@H](CC(C)C)C(=O)NCC(=O)N[C@@H](Cc4ccccc4)C(=O)N[C@@H](CCSC)C(=O)N[C@@H](CCCNC(=N)N)C(=O)N[C@@H](CCCCN)C(=O)N2)NC(=O)[C@H](CSSC[C@@H](C(=O)N[C@@H](CCCCN)C(=O)N[C@@H](Cc2ccc(O)cc2)C(=O)N[C@@H](Cc2ccc(C(=O)O)cc2)C(=O)N[C@@H](Cc2ccccc2)C(N)=O)NC(=O)[C@H](Cc2c[nH]c4ccccc24)NC(=O)[C@H](CCCCN)NC(=O)[C@H](Cc2c[nH]cn2)NC(=O)[C@H]([C@@H](C)O)NC(=O)[C@H](CCCNC(=N)N)NC(=O)[C@H](CO)NC3=O)NC(=O)[C@H](CCCCN)NC(=O)[C@H](CC(=O)O)NC(=O)[C@H](CC(N)=O)NC(=O)[C@H](CC(=O)O)NC(=O)[C@@H]2CCCN2C1=O [compound 403] (H-DCLGFMRKCIPDNDKCCRPNLVCSRTHKWCKY[Phe(4-COOH)]F-NH2; disulfide 2-17, 9-23, 16-30) | 0.16 µM | 9.06 µM | 0.31 µM | – | – | – |
| CC[C@H](C)[C@@H]1NC(=O)[C@@H]2CSSC[C@@H]3NC(=O)[C@H](C(C)C)NC(=O)[C@H](CC(C)C)NC(=O)[C@H](CC(N)=O)NC(=O)[C@@H]4CCCN4C(=O)[C@H](CCCNC(=N)N)NC(=O)[C@H](CSSC[C@H](NC(=O)[C@@H](N)CC(=O)O)C(=O)N[C@@H](CC(C)C)C(=O)NCC(=O)N[C@@H](Cc4ccccc4)C(=O)N[C@@H](CCSC)C(=O)N[C@@H](CCCNC(=N)N)C(=O)N[C@@H](CCCCN)C(=O)N2)NC(=O)[C@H](CSSC[C@@H](C(=O)N[C@@H](CCCCN)C(=O)N[C@@H](Cc2ccc(O)cc2)C(=O)N[C@H](C(=O)N[C@@H](CC2CCCCC2)C(N)=O)C(C)C)NC(=O)[C@H](Cc2c[nH]c4ccccc24)NC(=O)[C@H](CCCCN)NC(=O)[C@H](Cc2c[nH]cn2)NC(=O)[C@H]([C@@H](C)O)NC(=O)[C@H](CCCNC(=N)N)NC(=O)[C@H](CO)NC3=O)NC(=O)[C@H](CCCCN)NC(=O)[C@H](CC(=O)O)NC(=O)[C@H](CC(N)=O)NC(=O)[C@H](CC(=O)O)NC(=O)[C@@H]2CCCN2C1=O [compound 405] (H-DCLGFMRKCIPDNDKCCRPNLVCSRTHKWCKYV[Cha]-NH2; disulfide 2-17, 9-23, 16-30) | – | – | – | 0.02 µM | 5.53 µM | 0.01 µM |
| CC[C@H](C)[C@@H]1NC(=O)[C@@H]2CSSC[C@@H]3NC(=O)[C@H](C(C)C)NC(=O)[C@H](CC(C)C)NC(=O)[C@H](CC(N)=O)NC(=O)[C@@H]4CCCN4C(=O)[C@H](CCCNC(=N)N)NC(=O)[C@H](CSSC[C@H](NC(=O)[C@@H](N)CC(=O)O)C(=O)N[C@@H](CC(C)C)C(=O)NCC(=O)N[C@@H](Cc4ccccc4)C(=O)N[C@@H](CCSC)C(=O)N[C@@H](CCCNC(=N)N)C(=O)N[C@@H](CCCCN)C(=O)N2)NC(=O)[C@H](CSSC[C@@H](C(=O)N[C@@H](CCCCN)C(=O)N[C@@H](Cc2ccc(O)cc2)C(=O)N[C@H](C(=O)N[C@H](C(N)=O)c2ccccc2)C(C)C)NC(=O)[C@H](Cc2c[nH]c4ccccc24)NC(=O)[C@H](CCCCN)NC(=O)[C@H](Cc2c[nH]cn2)NC(=O)[C@H]([C@@H](C)O)NC(=O)[C@H](CCCNC(=N)N)NC(=O)[C@H](CO)NC3=O)NC(=O)[C@H](CCCCN)NC(=O)[C@H](CC(=O)O)NC(=O)[C@H](CC(N)=O)NC(=O)[C@H](CC(=O)O)NC(=O)[C@@H]2CCCN2C1=O [compound 406] (H-DCLGFMRKCIPDNDKCCRPNLVCSRTHKWCKYV[Phg]-NH2; disulfide 2-17, 9-23, 16-30) | – | – | – | 0.04 µM | 5.95 µM | 0.02 µM |
| CC[C@H](C)[C@@H]1NC(=O)[C@@H]2CSSC[C@@H]3NC(=O)[C@H](C(C)C)NC(=O)[C@H](CC(C)C)NC(=O)[C@H](CC(N)=O)NC(=O)[C@@H]4CCCN4C(=O)[C@H](CCCNC(=N)N)NC(=O)[C@H](CSSC[C@H](NC(=O)[C@@H](N)CC(=O)O)C(=O)N[C@@H](CC(C)C)C(=O)NCC(=O)N[C@@H](Cc4ccccc4)C(=O)N[C@@H](CCSC)C(=O)N[C@@H](CCCNC(=N)N)C(=O)N[C@@H](CCCCN)C(=O)N2)NC(=O)[C@H](CSSC[C@@H](C(=O)N[C@@H](CCCCN)C(=O)N[C@@H](Cc2ccc(O)cc2)C(=O)N[C@H](C(=O)N(C)[C@@H](Cc2ccccc2)C(N)=O)C(C)C)NC(=O)[C@H](Cc2c[nH]c4ccccc24)NC(=O)[C@H](CCCCN)NC(=O)[C@H](Cc2c[nH]cn2)NC(=O)[C@H]([C@@H](C)O)NC(=O)[C@H](CCCNC(=N)N)NC(=O)[C@H](CO)NC3=O)NC(=O)[C@H](CCCCN)NC(=O)[C@H](CC(=O)O)NC(=O)[C@H](CC(N)=O)NC(=O)[C@H](CC(=O)O)NC(=O)[C@@H]2CCCN2C1=O [compound 408] | – | – | – | 10 µM | 18.8 µM | 4.56 µM |
| CC[C@H](C)[C@@H]1NC(=O)[C@@H]2CSSC[C@@H]3NC(=O)[C@H](C(C)C)NC(=O)[C@H](CC(C)C)NC(=O)[C@H](CC(N)=O)NC(=O)[C@@H]4CCCN4C(=O)[C@H](CCCNC(=N)N)NC(=O)[C@H](CSSC[C@H](NC(=O)[C@@H](N)CC(=O)O)C(=O)N[C@@H](CC(C)C)C(=O)NCC(=O)N[C@@H](Cc4ccccc4)C(=O)N[C@@H](CCSC)C(=O)N[C@@H](CCCNC(=N)N)C(=O)N[C@@H](CCCCN)C(=O)N2)NC(=O)[C@H](CSSC[C@@H](C(=O)N[C@@H](CCCCN)C(=O)N[C@@H](Cc2ccc(O)cc2)C(=O)N[C@H](C(=O)N[C@@H](Cc2cn(C)c4ccccc24)C(N)=O)C(C)C)NC(=O)[C@H](Cc2c[nH]c4ccccc24)NC(=O)[C@H](CCCCN)NC(=O)[C@H](Cc2c[nH]cn2)NC(=O)[C@H]([C@@H](C)O)NC(=O)[C@H](CCCNC(=N)N)NC(=O)[C@H](CO)NC3=O)NC(=O)[C@H](CCCCN)NC(=O)[C@H](CC(=O)O)NC(=O)[C@H](CC(N)=O)NC(=O)[C@H](CC(=O)O)NC(=O)[C@@H]2CCCN2C1=O [compound 409] (H-DCLGFMRKCIPDNDKCCRPNLVCSRTHKWCKYV[Trp(1-Me)]-NH2; disulfide 2-17, 9-23, 16-30) | – | – | – | 0.09 µM | 5.61 µM | 0.07 µM |
| CC[C@H](C)[C@@H]1NC(=O)[C@@H]2CSSC[C@@H]3NC(=O)[C@H](C(C)C)NC(=O)[C@H](CC(C)C)NC(=O)[C@H](CC(N)=O)NC(=O)[C@@H]4CCCN4C(=O)[C@H](CCCNC(=N)N)NC(=O)[C@H](CSSC[C@H](NC(=O)[C@@H](N)CC(=O)O)C(=O)N[C@@H](CC(C)C)C(=O)NCC(=O)N[C@@H](Cc4ccccc4)C(=O)N[C@@H](CCSC)C(=O)N[C@@H](CCCNC(=N)N)C(=O)N[C@@H](CCCCN)C(=O)N2)NC(=O)[C@H](CSSC[C@@H](C(=O)N[C@@H](CCCCN)C(=O)N[C@@H](Cc2ccc(O)cc2)C(=O)N[C@H](C(=O)N[C@@H](Cc2ccc(C(=O)O)cc2)C(N)=O)C(C)C)NC(=O)[C@H](Cc2c[nH]c4ccccc24)NC(=O)[C@H](CCCCN)NC(=O)[C@H](Cc2c[nH]cn2)NC(=O)[C@H]([C@@H](C)O)NC(=O)[C@H](CCCNC(=N)N)NC(=O)[C@H](CO)NC3=O)NC(=O)[C@H](CCCCN)NC(=O)[C@H](CC(=O)O)NC(=O)[C@H](CC(N)=O)NC(=O)[C@H](CC(=O)O)NC(=O)[C@@H]2CCCN2C1=O [compound 410] | – | – | – | 9.19 µM | 7.11 µM | 6.31 µM |
